Active and inactive are the calls of the source.
What was measured:
Format in all cases: functional
[1] = molecular target: MAP kinase-interacting serine/threonine-protein kinase 2 (Homo sapiens, UniProt Q9HBH9)
[2] = molecular target: cAMP-dependent protein kinase catalytic subunit alpha (Homo sapiens, UniProt P17612)
[3] = molecular target: Serine/threonine-protein kinase DCLK1 (Homo sapiens, UniProt O15075);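 note: affinity for DCLK1 (listed as DCAMKL1) measured as one member of a kinome-wide kinase profiling panel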
Activin receptor type-1 = Activin receptor type-1 (Homo sapiens, UniProt Q04771); assay: Navigating the Kinome. Panel member name: ACVR1
[4] = molecular target: Non-receptor tyrosine-protein kinase TYK2 (Homo sapiens, UniProt P29597)
[5] = molecular target: Ribosomal protein S6 kinase beta-1 (Homo sapiens, UniProt P23443);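 note: measured as one member of a kinome-wide profiling panel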
Ribosomal protein S6 kinase beta-1, sequence (P23443 whole entry): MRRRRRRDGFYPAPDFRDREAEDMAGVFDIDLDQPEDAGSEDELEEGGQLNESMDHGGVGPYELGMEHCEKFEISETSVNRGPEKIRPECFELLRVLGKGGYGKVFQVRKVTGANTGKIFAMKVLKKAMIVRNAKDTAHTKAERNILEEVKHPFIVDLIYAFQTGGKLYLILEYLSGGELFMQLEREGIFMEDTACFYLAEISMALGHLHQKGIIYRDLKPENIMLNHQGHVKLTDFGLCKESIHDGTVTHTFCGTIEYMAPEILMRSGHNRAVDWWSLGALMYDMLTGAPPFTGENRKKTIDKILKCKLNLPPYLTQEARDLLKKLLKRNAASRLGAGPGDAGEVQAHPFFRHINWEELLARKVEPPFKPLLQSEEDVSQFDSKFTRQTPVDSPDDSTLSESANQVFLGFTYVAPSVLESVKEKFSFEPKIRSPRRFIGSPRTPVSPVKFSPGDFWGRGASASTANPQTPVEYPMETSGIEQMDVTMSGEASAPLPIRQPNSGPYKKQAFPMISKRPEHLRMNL

[6] = molecular target: Cyclin-dependent kinase 2 (Homo sapiens, UniProt P24941);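 note: CDK2 measured as one member of a broad kinome profiling panel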
[7] = molecular target: RAC-gamma serine/threonine-protein kinase (Homo sapiens, UniProt Q9Y243)
RAC-gamma serine/threonine-protein kinase, sequence (Q9Y243 whole entry): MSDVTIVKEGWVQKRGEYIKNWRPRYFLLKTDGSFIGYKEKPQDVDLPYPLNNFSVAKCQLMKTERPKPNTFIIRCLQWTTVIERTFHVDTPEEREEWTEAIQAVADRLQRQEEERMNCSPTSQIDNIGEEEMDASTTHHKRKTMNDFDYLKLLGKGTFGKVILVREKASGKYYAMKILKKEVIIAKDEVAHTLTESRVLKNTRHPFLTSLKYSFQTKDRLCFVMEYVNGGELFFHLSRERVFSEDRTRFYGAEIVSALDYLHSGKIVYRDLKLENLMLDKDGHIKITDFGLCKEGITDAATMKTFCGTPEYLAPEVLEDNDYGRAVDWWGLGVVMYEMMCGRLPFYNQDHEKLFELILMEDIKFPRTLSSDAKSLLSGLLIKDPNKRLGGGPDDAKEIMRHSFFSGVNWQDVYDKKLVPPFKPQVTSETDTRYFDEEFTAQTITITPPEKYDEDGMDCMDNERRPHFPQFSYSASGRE

[8] = molecular target: Serine/threonine-protein kinase 17A (Homo sapiens, UniProt Q9UEE5)
[9] = molecular target: Dual specificity tyrosine-phosphorylation-regulated kinase 3 (Homo sapiens, UniProt O43781);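 note: measured as one member of a broad kinase panel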
[10] = molecular target: Serine/threonine-protein kinase PAK 1 (Homo sapiens, UniProt Q13153)
[11] = molecular target: MAP kinase-activated protein kinase 2 (Homo sapiens, UniProt P49137);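 note: measured as one member of a kinome-wide kinase panel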
MAP kinase-activated protein kinase 2, sequence (P49137 whole entry): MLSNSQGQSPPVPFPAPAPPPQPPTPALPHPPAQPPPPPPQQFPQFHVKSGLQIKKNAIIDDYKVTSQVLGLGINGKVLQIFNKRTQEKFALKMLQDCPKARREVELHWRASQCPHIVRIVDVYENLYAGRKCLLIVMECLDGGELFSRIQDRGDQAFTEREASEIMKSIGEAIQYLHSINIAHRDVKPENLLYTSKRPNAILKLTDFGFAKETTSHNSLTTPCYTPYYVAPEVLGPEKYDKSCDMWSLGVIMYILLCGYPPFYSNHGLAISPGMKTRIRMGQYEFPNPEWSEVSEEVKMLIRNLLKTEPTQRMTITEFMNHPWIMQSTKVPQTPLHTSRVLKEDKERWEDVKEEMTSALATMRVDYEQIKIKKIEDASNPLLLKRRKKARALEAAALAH

[12] = molecular target: Serine/threonine-protein kinase pim-3 (Homo sapiens, UniProt Q86V86);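 note: value obtained as one member of a broad kinase panel profiling effort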
[13] = molecular target: Protein kinase C gamma type (Homo sapiens, UniProt P05129)
[14] = molecular target: Serine/threonine-protein kinase MRCK alpha (Homo sapiens, UniProt Q5VT25)
[15] = molecular target: Tyrosine-protein kinase JAK3 (Homo sapiens, UniProt P52333)
[16] = molecular target: Protein kinase C zeta type (Homo sapiens, UniProt Q05513);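 note: measured as one member of a broad kinase profiling panel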
[17] = molecular target: Calcium/calmodulin-dependent protein kinase type II subunit alpha (Homo sapiens, UniProt Q9UQM7); assay: Navigating the Kinome. Panel member name: CAMK2A
Calcium/calmodulin-dependent protein kinase type II subunit alpha, sequence (Q9UQM7 whole entry): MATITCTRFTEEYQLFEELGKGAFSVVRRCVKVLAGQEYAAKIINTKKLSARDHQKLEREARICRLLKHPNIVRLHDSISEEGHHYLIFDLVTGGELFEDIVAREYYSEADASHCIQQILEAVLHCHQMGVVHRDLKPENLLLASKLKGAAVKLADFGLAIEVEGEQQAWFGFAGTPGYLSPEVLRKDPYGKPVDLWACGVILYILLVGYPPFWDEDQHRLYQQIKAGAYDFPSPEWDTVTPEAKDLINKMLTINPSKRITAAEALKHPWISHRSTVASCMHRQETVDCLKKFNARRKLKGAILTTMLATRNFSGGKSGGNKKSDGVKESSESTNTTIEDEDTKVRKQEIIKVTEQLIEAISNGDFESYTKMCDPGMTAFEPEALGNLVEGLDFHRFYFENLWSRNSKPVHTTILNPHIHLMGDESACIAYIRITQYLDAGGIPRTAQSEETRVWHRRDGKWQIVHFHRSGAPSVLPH

[18] = molecular target: Lymphokine-activated killer T-cell-originated protein kinase (Homo sapiens, UniProt Q96KB5);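 note: value comes from a kinase panel screen in which TOPK was one of the panel members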
Lymphokine-activated killer T-cell-originated protein kinase, sequence (Q96KB5 whole entry): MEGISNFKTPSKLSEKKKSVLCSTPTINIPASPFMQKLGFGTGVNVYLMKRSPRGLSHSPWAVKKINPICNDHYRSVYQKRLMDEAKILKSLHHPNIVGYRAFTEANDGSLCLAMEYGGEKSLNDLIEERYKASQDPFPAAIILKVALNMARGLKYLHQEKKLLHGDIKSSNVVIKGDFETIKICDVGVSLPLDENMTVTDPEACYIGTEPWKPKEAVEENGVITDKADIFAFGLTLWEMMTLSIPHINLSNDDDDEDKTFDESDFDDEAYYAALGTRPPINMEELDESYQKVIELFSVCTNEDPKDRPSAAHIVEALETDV

[19] = molecular target: MAP kinase-activated protein kinase 3 (Homo sapiens, UniProt Q16644);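 note: value comes from a kinome-wide profiling panel in which MAPKAPK3 is one of the panel members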
[20] = molecular target: Cyclin-dependent kinase 5 (Homo sapiens, UniProt Q00535);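 note: CDK5 measured as one member of a kinase profiling panel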
Cyclin-dependent kinase 5, sequence (Q00535 whole entry): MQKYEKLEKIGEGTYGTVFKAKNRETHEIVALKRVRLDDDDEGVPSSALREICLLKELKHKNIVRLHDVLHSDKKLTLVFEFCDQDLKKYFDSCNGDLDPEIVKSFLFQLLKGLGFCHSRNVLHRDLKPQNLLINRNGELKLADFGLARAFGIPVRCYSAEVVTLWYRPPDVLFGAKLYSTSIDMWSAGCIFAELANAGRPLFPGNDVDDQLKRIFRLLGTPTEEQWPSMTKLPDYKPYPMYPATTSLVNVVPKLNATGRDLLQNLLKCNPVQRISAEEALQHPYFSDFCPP

[21] = molecular target: Serine/threonine-protein kinase Nek4 (Homo sapiens, UniProt P51957)
Serine/threonine-protein kinase Nek4, sequence (P51957 whole entry): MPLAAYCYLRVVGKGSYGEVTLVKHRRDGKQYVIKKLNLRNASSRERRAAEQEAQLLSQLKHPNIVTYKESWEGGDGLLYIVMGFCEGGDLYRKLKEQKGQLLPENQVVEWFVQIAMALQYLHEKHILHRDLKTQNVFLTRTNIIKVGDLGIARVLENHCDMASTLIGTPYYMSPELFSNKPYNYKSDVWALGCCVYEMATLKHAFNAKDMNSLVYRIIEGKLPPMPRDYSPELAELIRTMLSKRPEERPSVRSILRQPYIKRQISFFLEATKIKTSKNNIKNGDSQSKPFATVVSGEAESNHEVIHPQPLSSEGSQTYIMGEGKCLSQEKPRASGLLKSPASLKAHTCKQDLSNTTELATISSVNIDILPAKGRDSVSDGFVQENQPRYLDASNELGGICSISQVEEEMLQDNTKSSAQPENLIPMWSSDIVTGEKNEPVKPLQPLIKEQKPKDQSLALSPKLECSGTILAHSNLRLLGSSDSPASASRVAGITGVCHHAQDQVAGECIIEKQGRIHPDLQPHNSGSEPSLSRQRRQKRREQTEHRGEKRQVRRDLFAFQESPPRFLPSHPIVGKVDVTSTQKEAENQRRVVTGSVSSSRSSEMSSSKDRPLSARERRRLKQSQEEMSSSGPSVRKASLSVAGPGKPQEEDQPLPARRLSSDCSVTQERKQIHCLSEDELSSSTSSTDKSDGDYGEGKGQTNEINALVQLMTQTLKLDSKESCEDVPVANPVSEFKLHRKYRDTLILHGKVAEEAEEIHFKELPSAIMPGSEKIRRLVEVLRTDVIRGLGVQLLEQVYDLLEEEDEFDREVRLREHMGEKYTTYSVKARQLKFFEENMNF

[22] = molecular target: Tyrosine-protein kinase SYK (Homo sapiens, UniProt P43405)
SRSF protein kinase 1 = SRSF protein kinase 1 (Homo sapiens, UniProt Q96SB4);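 note: measured as one member of a kinome-wide kinase profiling panel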
SRSF protein kinase 1, sequence (Q96SB4 whole entry): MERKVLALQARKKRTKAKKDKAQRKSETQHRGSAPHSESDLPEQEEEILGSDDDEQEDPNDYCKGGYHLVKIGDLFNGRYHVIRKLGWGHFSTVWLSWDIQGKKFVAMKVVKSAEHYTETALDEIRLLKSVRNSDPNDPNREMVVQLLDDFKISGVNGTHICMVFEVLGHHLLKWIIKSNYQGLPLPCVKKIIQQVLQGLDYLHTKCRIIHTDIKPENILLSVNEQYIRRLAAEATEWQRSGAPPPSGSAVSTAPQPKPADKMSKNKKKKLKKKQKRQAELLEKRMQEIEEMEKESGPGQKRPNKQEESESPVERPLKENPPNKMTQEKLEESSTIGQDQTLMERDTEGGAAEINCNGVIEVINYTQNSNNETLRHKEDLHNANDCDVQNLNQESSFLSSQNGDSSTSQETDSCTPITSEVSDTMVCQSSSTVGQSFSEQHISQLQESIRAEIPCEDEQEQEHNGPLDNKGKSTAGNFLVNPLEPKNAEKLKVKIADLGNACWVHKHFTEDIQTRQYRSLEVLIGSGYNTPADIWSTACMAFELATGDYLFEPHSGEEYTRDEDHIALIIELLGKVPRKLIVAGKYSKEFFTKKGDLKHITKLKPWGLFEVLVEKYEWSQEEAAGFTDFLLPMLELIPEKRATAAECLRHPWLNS

[23] = molecular target: Vascular endothelial growth factor receptor 3 (Homo sapiens, UniProt P35916);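 note: value from a kinome-wide profiling panel, with FLT4 as the panel member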
[24] = molecular target: Serine/threonine-protein kinase PAK 4 (Homo sapiens, UniProt O96013);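 note: value obtained within a kinome profiling panel in which PAK4 was one of the panel members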
[25] = molecular target: Calcium/calmodulin-dependent protein kinase type II subunit gamma (Homo sapiens, UniProt Q13555)
[26] = molecular target: Rho-associated protein kinase 1 (Homo sapiens, UniProt Q13464);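 note: measured within a broad kinome-wide panel profiling many kinases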
[27] = molecular target: Serine/threonine-protein kinase PLK1 (Homo sapiens, UniProt P53350);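 note: PLK1 measured as one member of a kinome-wide profiling panel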
Serine/threonine-protein kinase PLK1, sequence (P53350 whole entry): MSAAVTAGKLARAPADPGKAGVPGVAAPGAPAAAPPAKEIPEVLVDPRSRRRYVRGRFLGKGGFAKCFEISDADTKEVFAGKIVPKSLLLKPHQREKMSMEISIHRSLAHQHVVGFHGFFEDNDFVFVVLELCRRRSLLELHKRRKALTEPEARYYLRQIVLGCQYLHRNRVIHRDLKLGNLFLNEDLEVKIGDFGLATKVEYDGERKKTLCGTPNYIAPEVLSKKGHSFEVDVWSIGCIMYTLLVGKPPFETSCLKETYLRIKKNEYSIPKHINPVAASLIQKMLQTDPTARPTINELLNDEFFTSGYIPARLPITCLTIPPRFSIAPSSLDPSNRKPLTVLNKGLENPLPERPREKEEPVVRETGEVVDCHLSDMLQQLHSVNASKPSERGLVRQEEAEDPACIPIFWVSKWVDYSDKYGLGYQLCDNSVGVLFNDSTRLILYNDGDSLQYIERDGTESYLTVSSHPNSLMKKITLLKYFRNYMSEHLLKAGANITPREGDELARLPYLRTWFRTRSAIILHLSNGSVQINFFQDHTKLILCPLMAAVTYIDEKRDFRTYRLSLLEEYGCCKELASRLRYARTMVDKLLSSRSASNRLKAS

Ki [1]: > 10 µM (inactive)
Ki [2]: > 3.98 µM (inactive)
Ki [3]: > 10 µM (inactive)
Ki (Activin receptor type-1): > 3.98 µM (inactive)
Ki [4]: 1.58 µM (active)
Ki [5]: > 6.31 µM (inactive)
Ki [6]: > 7.94 µM (inactive)
Ki [7]: > 10 µM (inactive)
Ki [8]: > 3.98 µM (inactive)
Ki [9]: > 6.31 µM (inactive)
Ki [10]: > 10 µM (inactive)
Ki [11]: > 7.94 µM (inactive)
Ki [12]: > 7.94 µM (inactive)
Ki [13]: > 7.94 µM (inactive)
Ki [14]: > 10 µM (inactive)
Ki [15]: > 5.01 µM (inactive)
Ki [16]: > 7.94 µM (inactive)
Ki [17]: > 7.94 µM (inactive)
Ki [19]: > 10 µM (inactive)
Ki [20]: > 6.31 µM (inactive)
Ki [21]: > 6.31 µM (inactive)
Ki [22]: 0.398 µM (active)
Ki (SRSF protein kinase 1): > 7.94 µM (inactive)
Ki [23]: > 6.31 µM (inactive)
Ki [24]: > 5.01 µM (inactive)
Ki [25]: > 6.31 µM (inactive)
Ki [26]: > 6.31 µM (inactive)
Ki [27]: > 7.94 µM (inactive)
SMILES: NNc1cc(N2CCOCC2)nc(OCCc2ccccn2)n1
Ki [18]: > 10 µM (inactive)

From ChEMBL document CHEMBL1201862, “PubChem BioAssay data set” (2004)
